# “Also recorded” adds a separate entry of the source.
# Assays:
# Type in all cases: cell-based, human
# [1] = system: pEBS7-YZ5 (ATM-competent, ATM+/+) cells; test: Radio-potentiation, colony formation after ionising radiation; settings: for % survival: ATM-competent pEBS7-YZ
# Method: (§1) The A-T fibroblast AT221JE-T cells (pEBS7, herein referred to as ATM-null cells) and the trans-complemented ATM+/+ (pEBS7-YZ5, herein referred to as ATM-competent cells) were grown in DMEM+20% FBS PSG and 100 ug/ml hygromycin. These cells are immortalised fibroblasts from an A-T patient which were transfected with pEBS7-YZ5 vector coding for full length ATM and the hygromycin resistance marker or pEBS7 vector, coding for the hygromycin resistance marker only. (Ziv Y et al (1997) Oncogene 15, 159-67)
# (§2) To show radio-potentiation, 2×10^5 cells per well were seeded into 6 well cluster plates. One plate was used for each dose of irradiation. After allowing the cells to adhere for 4 hours, the cells were dosed with a final concentration of 0.5 μM of the DNA-PKcs inhibitor KU-0060648 or equivalent DMSO/PBS control. After further incubation for 1 hour, the cells were irradiated with 0, 0.5, 1, 2 and 4 Grays. After 16 hours incubation, the cells were washed with 1 ml PBS and 500 μl trypsin EDTA added for 5 minutes at 37° C. 1.5 ml fresh medium was then added and the cell density in the untreated (0 Gy) wells determined. All subsequent calculations for seeding densities were performed according to this cell count. Cells were then replated into 2 mls fresh medium in 6 well cluster plates at the appropriate cell densities. After 6 days' incubation, the medium was removed by aspiration and cell colonies stained using 400 μl per well Giemsa stain for 20 minutes. Excess stain was washed from the plates with tap water and the plates left to air-dry. The number of colonies per well was then counted using Colcount software.
# [2] = system: pEBS7 (ATM-null) cells; test: as above; settings: for % survival: ATM-null pEBS7
# Method: as §1, §2
# [3] = system: pEBS7-YZ5 (ATM-competent, ATM+/+) cells; test: Chemopotentiation, sulforhodamine B growth assay in 96 well plates; settings: for % survival / Avg (absorbance at 564 nm): pEBS7-YZ
# Method: as §1
# (§3) Following a 4-hour incubation to allow cell adherence, 5 μl DNA-PKcS inhibitor KU-0060648 (final concentration 0.5 μM) or DMSO/PBS equivalent was added. After a further 1 hour incubation, 5 μl of chemotherapeutic drug was added per well (see table 1). Drugs were removed after 16 hours and 150 μl fresh medium added per well. After 24h, one plate for each cell line was fixed and stained to account for background differences between the lines. Five days after seeding, the medium was aspirated from the wells of the remaining assay plates and 100 μl ice cold 10% TCA added for 30 minutes at 4° C. The wells were then washed four times with tap water and 50 μl 0.4% sulforhodamine B in 1% acetic acid added per well. After 15 minutes incubation at room temperature, excess stain was washed from the wells with 1% acetic acid. 100 μl […] pH6.8 was then added per well, the plates shaken to resuspend the stain and the absorbance at 564 nm determined.
# [4] = system: pEBS7 (ATM-null) cells; test: as above; settings: for % survival / Avg (absorbance at 564 nm): pEBS7
# Method: as §1, §3
# [5] = KU-0060648 0.5 μM + doxorubicin 0
# [6] = KU-0060648 0.5 μM + doxorubicin 0.01 (unit not given)
# [7] = KU-0060648 0.5 μM + doxorubicin 0.025 (unit not given)
# [8] = KU-0060648 0.5 μM + doxorubicin 0.05 (unit not given)
# [9] = KU-0060648 0.5 μM + doxorubicin 0.075 (unit not given)
# [10] = KU-0060648 0.5 μM + doxorubicin 0.1 (unit not given)
# [11] = KU-0060648 0.5 μM + doxorubicin 0.25 (unit not given)
# [12] = KU-0060648 0.5 μM + doxorubicin 0.5 (unit not given)
# [13] = KU-0060648 0.5 μM + doxorubicin 0.75 (unit not given)
# [14] = KU-0060648 0.5 μM + doxorubicin 1 (unit not given)
# [15] = KU-0060648 0.5 μM + doxorubicin 2.5 (unit not given)
# [16] = KU-0060648 0.5 μM + doxorubicin 5 (unit not given)
# [17] = KU-0060648 0.5 μM + etoposide 0
# [18] = KU-0060648 0.5 μM + etoposide 0.01 (μg/ml per Table 1)
# [19] = KU-0060648 0.5 μM + etoposide 0.025 (μg/ml per Table 1)
# [20] = KU-0060648 0.5 μM + etoposide 0.05 (μg/ml per Table 1)
# [21] = KU-0060648 0.5 μM + etoposide 0.075 (μg/ml per Table 1)
# [22] = KU-0060648 0.5 μM + etoposide 0.1 (μg/ml per Table 1)
# [23] = KU-0060648 0.5 μM + etoposide 0.25 (μg/ml per Table 1)
# [24] = KU-0060648 0.5 μM + etoposide 0.5 (μg/ml per Table 1)
# [25] = KU-0060648 0.5 μM + etoposide 0.75 (μg/ml per Table 1)
# [26] = KU-0060648 0.5 μM + etoposide 1 (μg/ml per Table 1)
# [27] = KU-0060648 0.5 μM + etoposide 2.5 (μg/ml per Table 1)
# [28] = KU-0060648 0.5 μM + etoposide 5 (μg/ml per Table 1)
structure (smiles),measurement,setting,value
"CCN1CCN(CC(=O)Nc2ccc(-c3cccc4c(=O)cc(N5CCOCC5)oc34)c3sc4ccccc4c23)CC1 [KU-0060648, 2-(4-Ethyl-piperazin-1-yl)-N-[4-(2-morpholin-4-yl-4-oxo-4H-1-benzopyran-8-yl)-dibenzothiophen-1-yl]-acetamide]",potentiation of the effect of irradiation,[1]; ATM-competent cells,not
same,% survival,[1]; KU-0060648 0.5 μM + IR 0 Gy,100.0%
same,% survival,[1]; KU-0060648 0.5 μM + IR 0.5 Gy,39.3%
same,% survival,[1]; KU-0060648 0.5 μM + IR 1 Gy,13.5%
same,% survival,[1]; KU-0060648 0.5 μM + IR 2 Gy,6.2%
same,% survival,[1]; KU-0060648 0.5 μM + IR 4 Gy,1.7%
same,2Gy DMR (dose modification ratio),"[1]; single 2 Gy without / with KU-0060648 (0.5 μM), pEBS7-YZ (ATM-competent)",2.0
same,potentiation of the effect of irradiation,[2]; ATM-null cells,increased sensitivity; also recorded: significantly potentiate
same,% survival,[2]; KU-0060648 0.5 μM + IR 0 Gy,100.0%
same,% survival,[2]; KU-0060648 0.5 μM + IR 0.5 Gy,15.8%
same,% survival,[2]; KU-0060648 0.5 μM + IR 1 Gy,3.8%
same,% survival,[2]; KU-0060648 0.5 μM + IR 2 Gy,1.3%
same,% survival,[2]; KU-0060648 0.5 μM + IR 4 Gy,0.3%
same,2Gy DMR (dose modification ratio),"[2]; single 2 Gy without / with KU-0060648 (0.5 μM), pEBS7 (ATM-null)",5.7
same,potentiation of etoposide,[3]; ATM-competent cells,not
same,potentiation of the effect of doxorubicin,[3]; ATM-competent cells,not
same,% survival,[3]; [5],100%
same,Avg (absorbance at 564 nm),[3]; [5],1.62
same,% survival,[3]; [6],92.3%
same,Avg (absorbance at 564 nm),[3]; [6],1.50
same,% survival,[3]; [7],96.1%
same,Avg (absorbance at 564 nm),[3]; [7],1.56
same,% survival,[3]; [8],102.9%
same,Avg (absorbance at 564 nm),[3]; [8],1.67
same,% survival,[3]; [9],94.1%
same,Avg (absorbance at 564 nm),[3]; [9],1.53
same,% survival,[3]; [10],98.5%
same,Avg (absorbance at 564 nm),[3]; [10],1.60
same,% survival,[3]; [11],80.4%
same,Avg (absorbance at 564 nm),[3]; [11],1.30
same,% survival,[3]; [12],36.6%
same,Avg (absorbance at 564 nm),[3]; [12],0.59
same,% survival,[3]; [13],23.4%
same,Avg (absorbance at 564 nm),[3]; [13],0.38
same,% survival,[3]; [14],1.1%
same,Avg (absorbance at 564 nm),[3]; [14],0.02
same,% survival,[3]; [15],−2.1%
same,Avg (absorbance at 564 nm),[3]; [15],−0.03
same,% survival,[3]; [16],−1.9%
same,Avg (absorbance at 564 nm),[3]; [16],−0.03
same,% survival,[3]; [17],100%
same,Avg (absorbance at 564 nm),[3]; [17],1.79
same,% survival,[3]; [18],88.8%
same,Avg (absorbance at 564 nm),[3]; [18],1.59
same,% survival,[3]; [19],84.9%
same,Avg (absorbance at 564 nm),[3]; [19],1.52
same,% survival,[3]; [20],87.2%
same,Avg (absorbance at 564 nm),[3]; [20],1.56
same,% survival,[3]; [21],86.1%
same,Avg (absorbance at 564 nm),[3]; [21],1.54
same,% survival,[3]; [22],88.9%
same,Avg (absorbance at 564 nm),[3]; [22],1.59
same,% survival,[3]; [23],102.7%
same,Avg (absorbance at 564 nm),[3]; [23],1.84
same,% survival,[3]; [24],55.0%
same,Avg (absorbance at 564 nm),[3]; [24],0.99
same,% survival,[3]; [25],27.6%
same,Avg (absorbance at 564 nm),[3]; [25],0.49
same,% survival,[3]; [26],4.5%
same,Avg (absorbance at 564 nm),[3]; [26],0.08
same,% survival,[3]; [27],5.7%
same,Avg (absorbance at 564 nm),[3]; [27],0.10
same,% survival,[3]; [28],8.6%
same,Avg (absorbance at 564 nm),[3]; [28],0.15
same,potentiation of etoposide,[4]; ATM-null cells,increased sensitisation; also recorded: significantly potentiated
same,potentiation of the effect of doxorubicin,[4]; ATM-null cells,increased sensitivity; also recorded: significantly potentiate
same,% survival,[4]; [5],100%
same,Avg (absorbance at 564 nm),[4]; [5],1.42
same,% survival,[4]; [6],107.9%
same,Avg (absorbance at 564 nm),[4]; [6],1.53
same,% survival,[4]; [7],87.0%
same,Avg (absorbance at 564 nm),[4]; [7],1.23
same,% survival,[4]; [8],81.3%
same,Avg (absorbance at 564 nm),[4]; [8],1.15
same,% survival,[4]; [9],82.3%
same,Avg (absorbance at 564 nm),[4]; [9],1.17
same,% survival,[4]; [10],88.7%
same,Avg (absorbance at 564 nm),[4]; [10],1.26
same,% survival,[4]; [11],22.1%
same,Avg (absorbance at 564 nm),[4]; [11],0.31
same,% survival,[4]; [12],6.2%
same,Avg (absorbance at 564 nm),[4]; [12],0.09
same,% survival,[4]; [13],0.6%
same,Avg (absorbance at 564 nm),[4]; [13],0.01
same,% survival,[4]; [14],−2.2%
same,Avg (absorbance at 564 nm),[4]; [14],−0.03
same,% survival,[4]; [15],−2.0%
same,Avg (absorbance at 564 nm),[4]; [15],−0.03
same,% survival,[4]; [16],−0.8%
same,Avg (absorbance at 564 nm),[4]; [16],−0.01
same,% survival,[4]; [17],100%
same,Avg (absorbance at 564 nm),[4]; [17],1.61
same,% survival,[4]; [18],84.7%
same,Avg (absorbance at 564 nm),[4]; [18],1.36
same,% survival,[4]; [19],72.7%
same,Avg (absorbance at 564 nm),[4]; [19],1.17
same,% survival,[4]; [20],72.7%
same,Avg (absorbance at 564 nm),[4]; [20],1.17
same,% survival,[4]; [21],62.3%
same,Avg (absorbance at 564 nm),[4]; [21],1.00
same,% survival,[4]; [22],27.9%
same,Avg (absorbance at 564 nm),[4]; [22],0.45
same,% survival,[4]; [23],13.6%
same,Avg (absorbance at 564 nm),[4]; [23],0.22
same,% survival,[4]; [24],7.9%
same,Avg (absorbance at 564 nm),[4]; [24],0.13
same,% survival,[4]; [25],1.2%
same,Avg (absorbance at 564 nm),[4]; [25],0.02
same,% survival,[4]; [26],−0.4%
same,Avg (absorbance at 564 nm),[4]; [26],−0.01
same,% survival,[4]; [27],−1.5%
same,Avg (absorbance at 564 nm),[4]; [27],−0.02
same,% survival,[4]; [28],−1.7%
same,Avg (absorbance at 564 nm),[4]; [28],−0.03
